In ChEMBL document CHEMBL1140418, “Synthesis of (2R,3S) 3-amino-4-mercapto-2-butanol, a threonine analogue for covalent inhibition of sortases” (Bioorg Med Chem Lett, 2005):
Active and inactive are the calls of the source. The calls are words filed in the database; no cut-off is given here.

Experiments:
[1] = target: T1, Sortase B (Staphylococcus aureus) (UniProt Q2FZE3); test: Inhibitory activity against Sortase B
T1 sequence (whole entry): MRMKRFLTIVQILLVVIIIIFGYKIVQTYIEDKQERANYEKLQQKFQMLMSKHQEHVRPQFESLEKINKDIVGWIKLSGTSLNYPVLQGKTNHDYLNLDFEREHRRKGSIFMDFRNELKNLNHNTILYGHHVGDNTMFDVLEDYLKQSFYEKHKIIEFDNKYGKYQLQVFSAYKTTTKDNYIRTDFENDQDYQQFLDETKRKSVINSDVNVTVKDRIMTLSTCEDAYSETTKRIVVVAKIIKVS

[2] = target: T2, Sortase A (Staphylococcus aureus) (UniProt Q9S446); test: Inhibitory activity against Sortase A
T2 sequence (whole entry): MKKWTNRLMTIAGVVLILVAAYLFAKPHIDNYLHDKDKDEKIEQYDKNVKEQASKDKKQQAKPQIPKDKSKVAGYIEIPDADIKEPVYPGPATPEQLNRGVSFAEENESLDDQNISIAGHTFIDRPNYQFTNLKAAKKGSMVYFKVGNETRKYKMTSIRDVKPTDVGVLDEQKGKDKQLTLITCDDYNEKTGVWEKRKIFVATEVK

Row | Activity [1] | Activity [2] | Compound
1 | Active | – | C[C@@H](O)[C@@H](CS)NC(=O)[C@H](CCC(N)=O)NC(=O)[C@@H]1CCCN1C(=O)[C@H](CC(N)=O)NC(=O)OCc1ccccc1
2 | – | Active | CC(C)C[C@H](NC(=O)OCc1ccccc1)C(=O)N1CCC[C@H]1C(=O)N[C@@H](C)C(=O)N[C@H](CS)[C@@H](C)O
